Measurements as given in PMC10026756.
Like-named read-outs stand apart in the source and are kept apart here.

Columns and labels:
[1] = test system: HCT-116 colon cancer cell line; test: MTT assay, in vitro cytotoxicity against HCT-116; type: cell-based; conditions: read-out: IC50, in vitro cytotoxicity against HCT116 cell line
Description: The target compounds were evaluated for their anticancer activity against HCT-116 colon cancer cell line in which both c-Met and VEGFR-2 are overexpressed.[54]^,[55] […] The half maximal inhibitory concentration (IC50) was calculated for each compound (Table 1).
(§1) To scrutinise the cytotoxicity of the target compounds on colorectal cancer and normal cells, MTT assay was carried out against HCT-116 and WI38 cell lines, respectively.

[2] = biological target: VEGFR-2 (Homo sapiens, UniProt P35968); test: In vitro VEGFR-2 tyrosine kinase inhibition assay (BPS KDR Assay Kit)
VEGFR-2, sequence (P35968 20-1356): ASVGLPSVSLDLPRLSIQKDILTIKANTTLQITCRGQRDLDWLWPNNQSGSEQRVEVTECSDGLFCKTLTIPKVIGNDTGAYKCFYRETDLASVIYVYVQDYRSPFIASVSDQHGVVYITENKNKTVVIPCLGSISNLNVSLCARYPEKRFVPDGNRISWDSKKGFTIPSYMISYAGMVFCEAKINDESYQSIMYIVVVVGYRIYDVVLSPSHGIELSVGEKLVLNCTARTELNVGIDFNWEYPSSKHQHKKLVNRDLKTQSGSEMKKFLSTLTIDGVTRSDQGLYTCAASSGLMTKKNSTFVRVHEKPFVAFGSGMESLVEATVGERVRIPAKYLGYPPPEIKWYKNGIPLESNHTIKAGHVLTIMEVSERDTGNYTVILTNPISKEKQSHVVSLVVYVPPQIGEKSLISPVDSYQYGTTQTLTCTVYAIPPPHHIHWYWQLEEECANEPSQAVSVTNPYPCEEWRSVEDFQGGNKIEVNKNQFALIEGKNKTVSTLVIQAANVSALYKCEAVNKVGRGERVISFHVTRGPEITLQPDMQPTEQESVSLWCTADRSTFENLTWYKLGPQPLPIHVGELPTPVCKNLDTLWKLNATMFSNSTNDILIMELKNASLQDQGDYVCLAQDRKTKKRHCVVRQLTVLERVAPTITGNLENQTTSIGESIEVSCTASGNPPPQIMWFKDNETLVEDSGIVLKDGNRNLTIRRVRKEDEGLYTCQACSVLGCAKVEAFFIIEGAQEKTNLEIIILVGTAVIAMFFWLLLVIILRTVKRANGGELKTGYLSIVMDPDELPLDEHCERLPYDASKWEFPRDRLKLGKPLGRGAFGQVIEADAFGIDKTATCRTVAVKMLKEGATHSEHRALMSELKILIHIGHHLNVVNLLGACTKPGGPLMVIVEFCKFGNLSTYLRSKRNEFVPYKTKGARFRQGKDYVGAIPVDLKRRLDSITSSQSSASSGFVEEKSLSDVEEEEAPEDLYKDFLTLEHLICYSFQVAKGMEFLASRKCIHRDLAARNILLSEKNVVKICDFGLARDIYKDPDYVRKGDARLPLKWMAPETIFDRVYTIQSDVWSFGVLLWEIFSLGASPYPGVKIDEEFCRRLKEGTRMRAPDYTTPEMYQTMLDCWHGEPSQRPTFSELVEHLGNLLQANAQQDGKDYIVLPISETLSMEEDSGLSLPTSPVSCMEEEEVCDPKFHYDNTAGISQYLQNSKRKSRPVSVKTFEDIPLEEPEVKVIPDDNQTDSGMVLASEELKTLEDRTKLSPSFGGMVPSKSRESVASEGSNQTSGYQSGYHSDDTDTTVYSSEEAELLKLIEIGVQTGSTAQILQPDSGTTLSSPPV

[3] = biological target: c-Met (Homo sapiens, UniProt P08581); test: In vitro c-Met tyrosine kinase inhibition assay
c-Met, sequence (P08581 25-1390): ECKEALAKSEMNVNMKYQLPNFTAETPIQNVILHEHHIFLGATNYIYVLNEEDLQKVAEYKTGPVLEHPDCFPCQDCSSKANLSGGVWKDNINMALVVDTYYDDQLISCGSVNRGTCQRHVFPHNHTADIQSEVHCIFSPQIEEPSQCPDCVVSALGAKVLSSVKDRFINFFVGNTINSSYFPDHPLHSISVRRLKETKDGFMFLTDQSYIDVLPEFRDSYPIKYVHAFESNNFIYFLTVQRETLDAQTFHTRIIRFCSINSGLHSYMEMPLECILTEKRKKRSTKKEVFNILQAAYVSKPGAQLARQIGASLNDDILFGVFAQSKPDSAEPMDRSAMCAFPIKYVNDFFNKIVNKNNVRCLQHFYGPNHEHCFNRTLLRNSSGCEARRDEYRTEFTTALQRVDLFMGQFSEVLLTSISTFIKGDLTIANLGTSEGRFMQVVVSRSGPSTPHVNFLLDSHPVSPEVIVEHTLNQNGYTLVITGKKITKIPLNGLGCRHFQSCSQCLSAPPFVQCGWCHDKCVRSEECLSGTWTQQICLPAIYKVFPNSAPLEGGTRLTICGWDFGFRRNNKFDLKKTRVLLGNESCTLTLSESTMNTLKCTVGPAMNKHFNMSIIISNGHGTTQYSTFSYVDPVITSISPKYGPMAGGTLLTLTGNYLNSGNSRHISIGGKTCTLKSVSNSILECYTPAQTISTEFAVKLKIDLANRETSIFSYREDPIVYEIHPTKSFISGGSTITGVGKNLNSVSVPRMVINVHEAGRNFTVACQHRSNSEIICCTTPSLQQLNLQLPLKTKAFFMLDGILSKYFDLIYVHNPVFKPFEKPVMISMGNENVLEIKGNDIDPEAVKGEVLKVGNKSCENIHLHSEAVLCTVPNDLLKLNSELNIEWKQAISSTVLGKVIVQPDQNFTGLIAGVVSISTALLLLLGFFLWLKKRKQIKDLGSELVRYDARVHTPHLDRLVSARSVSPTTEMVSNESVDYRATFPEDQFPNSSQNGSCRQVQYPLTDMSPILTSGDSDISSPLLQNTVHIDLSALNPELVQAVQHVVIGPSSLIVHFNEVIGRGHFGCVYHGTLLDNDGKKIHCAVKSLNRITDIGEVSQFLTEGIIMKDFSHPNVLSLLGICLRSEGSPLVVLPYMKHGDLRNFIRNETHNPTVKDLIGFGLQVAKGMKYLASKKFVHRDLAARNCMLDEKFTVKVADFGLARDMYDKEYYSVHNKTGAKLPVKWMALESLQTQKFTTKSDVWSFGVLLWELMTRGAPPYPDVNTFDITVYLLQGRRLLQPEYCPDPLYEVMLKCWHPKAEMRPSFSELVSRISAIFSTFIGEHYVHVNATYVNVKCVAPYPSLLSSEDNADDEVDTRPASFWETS

[4] = test system: HCT-116 colon cancer cell line; test: Cell cycle analysis; type: cell-based; conditions: HCT-116, treated at IC50 concentration, 24 h
Description: Aiming to further study the mechanism of the target compounds, the cell cycle arrest experiment of 4b and 4e blocking the cell cycle of HCT-116 was carried out using Annexin V-FITC/PI staining (Table 4 and Figure 8).[56]
(§2) The effects of both 4b and 4e on progress of cell cycle and induction of apoptosis in […] cells were carried out using Annexin V-FITC Apoptosis Detection Kit (BioVision Research Products, Mountain View, CA) (see Supplementary Data)[8].

[5] = test system: HCT-116 cells; test: Apoptosis assay, Annexin V-FITC/PI staining; type: cell-based; conditions: HCT-116, treated at IC50 concentration, 24 h
Description: Compared to the control group, the number of both early and late apoptotic cells of target compounds 4b and 4e was increased.
as §2

[6] = MTT assay, in vitro toxicity against normal cells; type: cell-based; conditions: human, WI38 normal cells; MTT assay, WI38; read-out: IC50, in vitro cytotoxicity against WI38 normal cell line
Description: (§3) To scrutinise the safety of target compounds on normal cells, compounds 4b and 4e were selected to evaluate their cytotoxic activity against WI38 normal cell line (Table 2).
as §1

[7] = test system: WI38 normal cell line; test: MTT assay, in vitro toxicity against normal cells; type: cell-based; conditions: HCT-116 versus WI38
Description: as §3, §1

[8] = Homo sapiens, HCT-116, MTT assay

SMILES	melting point [°C]	IC50 [1, 8] [µM]	IC50 [2] [nM]	VEGFR-2 %inh ([2]; conc 0.01 (unit not given)) [%]	VEGFR-2 %inh ([2]; conc 0.1 (unit not given)) [%]	VEGFR-2 %inh ([2]; conc 1 (unit not given)) [%]	VEGFR-2 %inh ([2]; conc 10 (unit not given)) [%]	IC50 [3] [nM]	c-Met %inh ([3]; conc 0.01 (unit not given)) [%]	c-Met %inh ([3]; conc 0.1 (unit not given)) [%]	c-Met %inh ([3]; conc 1 (unit not given)) [%]	c-Met %inh ([3]; conc 10 (unit not given)) [%]	also measured
O=C(Cn1c(=O)[nH]c2ccccc2c1=O)NCc1ccccc1 [Compound 2b, N-Benzyl-2-(2,4-dioxo-1,4-dihydroquinazolin-3(2H)-yl)acetamide]	298 to 299	16 ± 0.85	–	–	–	–	–	–	–	–	–	–	–
O=C(Cn1c(=O)[nH]c2ccccc2c1=O)NCc1n[nH]c(=S)o1 [Compound 4h, 2-(2,4-Dioxo-1,4-dihydroquinazolin-3(2H)-yl)-N-[(5-thioxo-4,5-dihydro-1,3,4-oxadiazol-2-yl)methyl]acetamide]	–	6.99 ± 0.37	297 ± 13	18.58	40.45	60.74	82.49	245 ± 11	17.87	35.84	70.09	86.83	–
COc1cc2nccc(Oc3ccc(NC(=O)C4(C(=O)Nc5ccc(F)cc5)CC4)cc3)c2cc1OC [Cabozantinib, reference compound]	–	16.4 ± 0.86	–	–	–	–	–	–	–	–	–	–	%G0–G1 [4]: 43.12%; %G2/M [4]: 24.72%; %S [4]: 32.16%; %Necrosis [5]: 3.63%; Apoptosis %Early [5]: 12.52%; Apoptosis %Late [5]: 19.61%; Apoptosis %Total [5]: 32.13%; IC50 [6]: 44.7 ± 2.65 µM
COc1ccc(/C=N/NC(=O)CNC(=O)Cn2c(=O)[nH]c3ccccc3c2=O)cc1 [Compound 4c, (E)-2-(2,4-Dioxo-1,4-dihydroquinazolin-3(2H)-yl)-N-[2-(2-[4-methoxy-benzylidene]hydrazineyl)-2-oxoethyl]acetamide]	290 to 292	31.8 ± 1.68	–	–	–	–	–	–	–	–	–	–	–
O=C(Cn1c(=O)[nH]c2ccccc2c1=O)NCC(=O)N/N=C/c1ccco1 [Compound 4d, (E)-2-(2,4-Dioxo-1,4-dihydroquinazolin-3(2H)-yl)-N-[2-(2-[furan-2-ylmethylene]hydrazineyl)-2-oxoethyl]acetamide]	–	10.8 ± 0.57	–	–	–	–	–	–	–	–	–	–	–
O=C(Cn1c(=O)[nH]c2ccccc2c1=O)NCC(=O)NNC(=S)Nc1ccccc1 [Compound 4i, 2-(2,4-Dioxo-1,4-dihydroquinazolin-3(2H)-yl)-N-[2-oxo-2-(2-[phenylcar-bamothioyl]hydrazineyl)ethyl]acetamide]	287 to 290	9.2 ± 0.49	–	–	–	–	–	–	–	–	–	–	–
O=C(Cn1c(=O)[nH]c2ccccc2c1=O)NCC(=O)N/N=C/c1ccccc1 [Compound 4a, (E)-N-[2-(2-Benzylidenehydrazineyl)-2-oxoethyl]-2-(2,4-dioxo-1,4-dihy-droquinazolin-3(2H)-yl)acetamide]	325	36.9 ± 1.95	–	–	–	–	–	–	–	–	–	–	–
O=C(Cn1c(=O)[nH]c2ccccc2c1=O)NCC(=O)N/N=C1\C(=O)Nc2ccccc21 [Compound 4f, (Z)-2-[2,4-Dioxo-1,4-dihydroquinazolin-3(2H)-yl]-N-[2-oxo-2-(2-(2-oxoindolin-3-ylidene)hydrazineyl)ethyl]acetamide]	–	44.1 ± 2.33	–	–	–	–	–	–	–	–	–	–	–
CCOC(=O)CNC(=O)Cn1c(=O)[nH]c2ccccc2c1=O [Compound 2g, Ethyl [2-(2,4-dioxo-1,4-dihydroquinazolin-3(2H)-yl)acetyl]glycinate]	–	12.5 ± 0.66	–	–	–	–	–	–	–	–	–	–	–
O=C(Cn1c(=O)[nH]c2ccccc2c1=O)Nc1ccccc1 [Compound 2a, 2-(2,4-Dioxo-1,4-dihydroquinazolin-3(2H)-yl)-N-phenylacetamide]	–	15.1 ± 0.8	–	–	–	–	–	–	–	–	–	–	–
O=C(Cn1c(=O)[nH]c2ccccc2c1=O)N1CCCCC1 [Compound 2e, 3-(2-Oxo-2-(piperidin-1-yl)ethyl)quinazoline-2,4(1H,3H)-dione]	204	38 ± 2.01	–	–	–	–	–	–	–	–	–	–	–
O=C(Cn1c(=O)[nH]c2ccccc2c1=O)NCC(=O)NN=C1CCCCC1 [Compound 4e, N-[2-(2-Cyclohexylidenehydrazineyl)-2-oxoethyl]-2-(2,4-dioxo-1,4-dihydroquinazolin-3(2H)-yl)acetamide]	–	1.41 ± 0.07	82 ± 4	33.05	50.29	73.09	86.83	69 ± 3	28.94	55.05	80.41	92.94	%G0–G1 [4]: 44.60%; %G2/M [4]: 8.51%; %S [4]: 46.89%; %Necrosis [5]: 2.28%; Apoptosis %Early [5]: 26.76%; Apoptosis %Late [5]: 12.02%; Apoptosis %Total [5]: 38.78%; IC50 [6]: 10.6 ± 0.62 µM; cytotoxic activity against HCT-116 colon cancer cells, times more than WI38 normal cells [7]: 7.5 times
NNC(=O)CNC(=O)Cn1c(=O)[nH]c2ccccc2c1=O [Compound 3, 2-(2,4-Dioxo-1,4-dihydroquinazolin-3(2H)-yl)-N-(2-hydrazineyl-2-oxo-ethyl)acetamide]	296 to 298	24.3 ± 1.28	–	–	–	–	–	–	–	–	–	–	–
O=C(Cn1c(=O)[nH]c2ccccc2c1=O)NCc1n[nH]c(=S)n1-c1ccccc1 [Compound 4j, 2-(2,4-Dioxo-1,4-dihydroquinazolin-3(2H)-yl)-N-[(4-phenyl-5-thioxo-4,5-dihydro-1H-1,2,4-triazol-3-yl)methyl]acetamide]	–	18.9 ± 1	–	–	–	–	–	–	–	–	–	–	–
O=C(Cn1c(=O)[nH]c2ccccc2c1=O)NCC(=O)N/N=C/c1ccc([N+](=O)[O-])cc1 [Compound 4b, (E)-2-(2,4-Dioxo-1,4-dihydroquinazolin-3(2H)-yl)-N-[2-(2-[4-nitrobenz-ylidene]hydrazineyl)-2-oxoethyl]acetamide]	–	< 1	35 ± 2	38.24	60.12	78.48	90.09	63 ± 3	27.49	58.65	82.51	93.15	%G0–G1 [4]: 39.59%; %G2/M [4]: 9.34%; %S [4]: 51.07%; %Necrosis [5]: 4.53%; Apoptosis %Early [5]: 15.28%; Apoptosis %Late [5]: 26.41%; Apoptosis %Total [5]: 41.69%; IC50 [6]: 18.4 ± 1.09 µM; cytotoxic activity against HCT-116 colon cancer cells, times more than WI38 normal cells [7]: 25 times; IC50 ([1]; MTT assay): 0.734 ± 0.04 µM
Cc1cc(C)n(C(=O)CNC(=O)Cn2c(=O)[nH]c3ccccc3c2=O)n1 [Compound 4g, N-[2-(3,5-Dimethyl-1H-pyrazol-1-yl)-2-oxoethyl]-2-(2,4-dioxo-1,4-dihyd-roquinazolin-3(2H)-yl)acetamide]	284 to 286	3.7 ± 0.2	103 ± 5	27.96	52.07	70.58	88.15	271 ± 12	20.56	34.11	65.69	85.71	–
O=C(Cn1c(=O)[nH]c2ccccc2c1=O)NC1CCCCC1 [Compound 2c, N-Cyclohexyl-2-(2,4-dioxo-1,4-dihydroquinazolin-3(2H)-yl)acetamide]	–	4.69 ± 0.25	52 ± 2	35.32	56.18	76.46	88.96	84 ± 4	27.36	55.94	73.28	92.28	–
O=C(Cn1c(=O)[nH]c2ccccc2c1=O)N1CCOCC1 [Compound 2f, 3-(2-Morpholino-2-oxoethyl)quinazoline-2,4(1H,3H)-dione]	254 to 255	5.4 ± 0.29	210 ± 9	18.54	43.39	68.26	85.96	161 ± 7	22.84	44.08	70.59	88.98	–
CN(C)C(=O)Cn1c(=O)[nH]c2ccccc2c1=O [Compound 2d, 2-(2,4-Dioxo-1,4-dihydroquinazolin-3(2H)-yl)-N,N-dimethylacetamide]	218 to 220	47.5 ± 2.51	–	–	–	–	–	–	–	–	–	–	–
